Results reported in patent publication US20240392343A1, “METHODS TO SCREEN YEAST TO IDENTIFY XENOBIOTICS THAT TARGET PESTS, PATHOGENS AND PARASITES” (The Governing Council of the University of Toronto, priority 2023, published 2024).
Entries after “also recorded” stand apart in the source; their conditions may differ.

Assays:
[1] = test system: cytochrome P450s in C. elegans and diverse PPN species; test: HPLC of cyproside-3 parent and metabolites in whole worms with pan-P450 inhibitor 1-ABT; assay type: in vivo
From the text: (§1) FIGS. A-A′″ show HPLC chromatograms with cyproside-3 (abbreviated cypros-3) unmodified parent molecule (P) and metabolite (M1-M5) peaks indicated. MP1 is a cyproside-3 metabolite uniquely produced in P. penetrans. Y-axis indicates absorbance wavelength in nm. FIGS. B-B′″ show quantification of unmodified cyproside-3 parent (P) and metabolite peaks from A-A′″. Error bars indicate SEM, p-values calculated using unpaired t-test. FIGS. C-C′″ show the proportion mobile worms relative to DMSO solvent controls after 72-hour exposure to 20 μM cyproside-3 (C. elegans) or 60 μM cyproside-3 (all other species). P-values calculated using unpaired t-test.
(§2) Using the pan-P450 inhibitor (1-ABT), cyproside-3's metabolism was inhibited in vivo (FIGS. 11A and 11B).

[2] = test system: C. elegans and diverse PPN species; test: Worm mobility after cyproside-3 exposure with 1-ABT; assay type: in vivo; conditions: 72-hour exposure to 20 μM cyproside-3 (C. elegans) or 60 μM cyproside-3 (all other species)
From the text: as §1, §2

Mi-CYP4731A3 = test: HPLC analysis of lysates of yeast expressing CYP4731A3; assay type: in vitro ADME, Meloidogyne incognita; conditions: lysates of yeast treated with 100 μM compound
From the text: (§3) Each data point corresponds to an individual yeast strain expressing a unique M. incognita CYP enzyme. The data point above the dotted line has a p-value <0.01, and corresponds to the strain expressing M. incognita CYP4731A3. […] Unmodified sel-A and metabolites M2 and M3 are indicated. […] AUC is the area under the curve for M2 and M3 combined, calculated at 260 nm. Error bars are SEM. The p-value was obtained from an unpaired one-tailed Student's t-test comparing the means of empty vector control and CYP4731A3 expressing yeast. M1 was not detectable.
(§4) Each data point corresponds to an individual yeast strain expressing a unique M. incognita P450 enzyme. The data point above the dotted line has a p-value <0.01 and corresponds to the strain expressing M. incognita CYP4731A3. […] Viability relative to untreated controls is indicated by the grey-coded scale. […] Peaks corresponding to the unmodified cyproside-3 and the three cyproside-3 metabolites visible using the HPLC-DAD system (M1, M2 and M3) are indicated. […] AUC is the area under the curve, error bars indicate SEM. The p-values were obtained from unpaired two-tailed Student's t-tests comparing the means of the empty vector control and CYP4731A3 expressing yeast. […]

[3] = test system: human cells (HEK293 and HepG2), fungi (Saccharomyces cerevisiae and Candida albicans) and plant beneficial rhizobacteria (Pseudomonas simiae WCS417 and …); test: Dose-response analysis on off-target systems (FIG. 10); assay type: cell-based; conditions: HEK293, HepG2, S. cerevisiae, C. albicans, P. simiae WCS417, P. defensor WCS374; relative to solvent control
From the text: (§5) Dose-response analysis of cyproside-3 and tioxazafen on diverse nematode species and off-target systems including human cells (HEK293 and HepG2), fungi (Saccharomyces cerevisiae and Candida albicans) and plant beneficial rhizobacteria (Pseudomonas simiae WCS417 and Pseudomonas defensor WCS374). The activity of the compound relative to the solvent control in each assay is indicated by the gray coded scale.

[4] = test system: diverse nematode species (non-parasitic and plant parasitic species); test: Dose-response analysis on diverse nematode species (FIG. 10); assay type: in vivo; conditions: dose-response relative to solvent control
From the text: as §5

M. incognita CYP4731A3 = test: CYPce assay: yeast-based M. incognita CYP expression screen and dose-response; assay type: cell-based, Meloidogyne incognita; conditions: 19 M. incognita CYP-expressing yeast strains vs empty vector, 50 μM in screen
From the text: as §3
as §4, with “SEM.” for “SEM. The p-values were obtained from unpaired two-tailed Student's t-tests comparing the means of the empty vector control and CYP4731A3 expressing yeast.”
With that single strain, a library of small molecules are screened for those that can be bioconverted by the heterologously-expressed enzyme into a product that kills the cells expressing the enzyme. As set out herein, the growth of cells was measured, for example, by a variety of means, including optical density. […]

Meloidogyne incognita = test: Soil-based tomato root infection assay; assay type: in vivo; conditions: 6 weeks of infection in soil drenched with chemical
From the text: Cyprosides 3-2, 3-3, and 3-4 are structural analogs of cyproside-3. […] All error bars represent SEM, p-values calculated using an unpaired t test vs. solvent controls. […] Cyprosides 3-7, 3-12, 3-25, and 3-26 are structural analogs of cyproside-3. The other data points represent negative (water, DMSO) and positive (fluopyram, tioxazafen) controls. All error bars represent SEM.
There were no significant adverse effects on plant growth by the cyproside-3s as evident by the resulting root mass (FIG. 12C).

CYP-35D1 = biological target: T1, CYP-35D1 (Caenorhabditis elegans, UniProt O45364); test: HPLC / LCMS analysis of cyproside-3 metabolites, CYP-35D1; assay type: in vitro ADME, C. elegans; conditions: lysates of yeast after treatment with 100 μM cyproside-3
T1 construct: expressed in transfected cells; host or cells: Saccharomyces cerevisiae (yeast), expression vector vs empty vector
T1 sequence (O45364 1-499): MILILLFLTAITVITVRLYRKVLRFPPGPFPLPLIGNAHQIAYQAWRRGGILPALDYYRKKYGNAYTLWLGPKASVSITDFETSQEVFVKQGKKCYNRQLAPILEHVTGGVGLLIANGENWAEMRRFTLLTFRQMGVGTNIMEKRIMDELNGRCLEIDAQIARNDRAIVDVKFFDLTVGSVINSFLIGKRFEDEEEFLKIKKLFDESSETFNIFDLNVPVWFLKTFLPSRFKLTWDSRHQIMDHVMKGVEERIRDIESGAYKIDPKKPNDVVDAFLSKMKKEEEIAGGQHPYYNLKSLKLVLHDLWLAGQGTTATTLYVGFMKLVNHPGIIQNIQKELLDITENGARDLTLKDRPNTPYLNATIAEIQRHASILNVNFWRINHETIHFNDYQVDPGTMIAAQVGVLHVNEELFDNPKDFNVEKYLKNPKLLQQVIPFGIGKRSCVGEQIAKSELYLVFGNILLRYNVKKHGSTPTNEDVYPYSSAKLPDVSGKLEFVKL
From the text: (§6) In this condition cyproside-3 is not metabolized into a lethal product and yeast are viable. […] CYP-35D1 is capable of metabolizing cyproside-3 into an active metabolite which leads to reduced viability in the yeast. […] Viability relative to untreated controls is indicated by the gray coded scale. […] AUC is the area under the curve, error bars indicate SEM. The p-values were obtained from unpaired two-tailed Student's t-tests comparing the means of the empty vector control and CYP-35D1 expressing yeast. […] Peaks corresponding to the unmodified cyproside-3 and the three cyproside-3 metabolites visible using our HPLC-DAD system (M1, M2 and M3) are indicated.
Cytochrome P450 enzymes (CYPs) catalyze the S-oxidation of cyproside-3 which produces an electrophilic sulfoxide metabolite. This sulfoxide metabolite reacts with glutathione (GSH) and is further processed to γ-Glutamyl-Cysteine (γ-Glu-Cys), Cysteinylglycine (Cys-Gly) and cysteine (Cys) conjugates.

C. elegans P450 CYP-35D1 = biological target: T2, C. elegans P450 CYP-35D1 (Caenorhabditis elegans, UniProt O45364); test: CYPce assay: viability of yeast expressing CYP-35D1 vs empty vector; assay type: cell-based; conditions: yeast expressing CYP-35D1 vs empty vector yeast; dose-response
T2 construct: expressed in transfected cells; host or cells: Saccharomyces cerevisiae (yeast), expression vector vs empty vector
T2 sequence (O45364 1-499): T1 sequence (O45364 1-499)
From the text: as §6
CYPce (pronounced sip-sea) is an acronym for the heterologous expression of CYPs in S. cerevisiae for the purpose of identifying P450s that can bioactivate small molecules into lethal products that may or may not be reactive. […]
(§7) With that single strain, a library of small molecules are screened for those that can be bioconverted by the heterologously-expressed enzyme into a product that kills the cells expressing the enzyme. As set out herein, the growth of cells was measured, for example, by a variety of means, including optical density.

CYP-35C1 = assay type: in vitro ADME; conditions: C. elegans
From the text: (§8) Viability relative to untreated controls is indicated by the gray coded scale. […] The p-values were obtained from unpaired two-tailed Student's t-tests comparing the means of the empty vector control and CYP-35C1 expressing yeast.
FIGS. 6A-C show mass spectrometry (MS) data for metabolite M1-M3 HPLC fractions and untreated control fractions, as well as MS/MS fragmentation data for selected masses. Structures of γ-glutamylcysteine (γ-Glu-Cys) (A), glutathione (B), and cysteine (C) conjugates of a selectivin-A (sel-A) electrophilic sulfoxide metabolite are shown, along with fragmentations that produce masses found in the MS/MS plots. […] S-oxidation produces an electrophilic sulfoxide metabolite that reacts with glutathione (GSH) either spontaneously or via glutathione-S-transferase (GST), and is likely further processed to 7-Glu-Cys and cysteine conjugates via phytochelatin synthase (PCS) and 7-glutamyl transferase (GGT), respectively. Cytochrome p450 enzymes (CYPs) likely mediate S-oxidation.

C. elegans P450 CYP-35C1 = test: CYPce assay: viability of yeast expressing CYP-35C1 vs empty vector; assay type: cell-based; conditions: yeast expressing CYP-35C1 vs empty vector yeast; dose-response
From the text: as §8
CYPce (pronounced sip-sea) is an acronym for the heterologous expression of CYPs in S. cerevisiae for the purpose of identifying P450s that can bioactivate small molecules into lethal products that may or may not be reactive. The CYPce assay relies on culturing a single strain of yeast (S. cerevisiae) (or any convenient cell type in other embodiments) that expresses a single P450 enzyme (or any other small molecule modifying enzyme in other embodiments) from a single targeted organism (FIG. 2).
as §7

Row | Compound | effect of 1-ABT on cyproside-3's metabolism in vivo [1] | effect of 1-ABT on cyproside-3's effects on the worms (mobility) [2] | metabolism by Mi-CYP4731A3 in yeast (HPLC) (Mi-CYP4731A3) | activity against non-targeted cells and organisms [3] | phylogenetic activity profile: activity on nematode species [4] | yeast killing dependent on Mi-CYP4731A3 (M. incognita CYP4731A3) | control of root infection by M. incognita (eggs per milligram of tomato root tissue) (Meloidogyne incognita) | metabolism by CYP-35D1 (HPLC) (CYP-35D1) | yeast killing dependent on CYP-35D1 (C. elegans P450 CYP-35D1) | nature of product of metabolism by CYP-35C1 (LCMS and NMR) (CYP-35C1) | metabolism by CYP-35C1 in yeast (HPLC) (CYP-35C1; 100 μM) | yeast killing dependent on CYP-35C1 (C. elegans P450 CYP-35C1)
1 | Nn1nnc2ccccc21 [Cyproside 1-ABT, reference compound] | inhibited | inhibited cyproside-3's effects on the worms | – | – | – | – | – | – | – | – | – | –
2 | CCSc1nnc(-c2ccc(Cl)cc2)o1 [cyproside-3, 2-(4-chlorophenyl)-5-(ethylthio)-1,3,4-oxadiazole] | – | – | metabolized by Mi-CYP4731A3 in yeast | little-to-no activity against non-targeted cells and organisms | high selectivity for all nematode species tested; also recorded: broad-spectrum activity in plant-parasitic nematodes | can kill yeast in a Mi-CYP4731A3-dependent manner | demonstrated activity | metabolized by CYP-35D1 into a reactive product | killed yeast in a manner dependent on C. elegans P450 CYP-35D1 | – | – | –
3 | Clc1ccc(-c2cn3ccsc3n2)cc1 [selectivin-A, 6-(4-chlorophenyl)imidazo[2,1-b]thiazole] | – | – | metabolized by Mi-CYP4731A3 in yeast | – | – | kills yeast in a Mi-CYP4731A3-dependent manner | – | – | – | metabolized by CYP-35C1 into a reactive lethal product | metabolized by CYP-35C1 in yeast | kills yeast in a manner dependent on the C. elegans P450 CYP-35C1
